Assay results taken from patent US10752612B2, “PLK4 inhibitors” (LUDWIG INSTITUTE FOR CANCER RESEARCH LTD, priority 2015, dated 2020).
Where “and” joins values, the source holds several entries; their conditions need not be identical. Identical values can stand only once. Entries after “also recorded” stand apart in the source; their conditions may differ.

Experiments:
[1] = system: full-length mouse Plk4-YFP; experiment: Plk4 stabilization assay, Plk4-YFP DLD-1 cells; format: cell-based, human; conditions: 250 nM, 24 hours
Method: Plk4 stabilization assay. Expression was induced in Plk4-YFP DLD-1 cells using 1 μg/ml doxycycline. At the same time, cells were treated with the indicated concentrations of compounds. Cells were incubated for 24 hours before harvesting for Western blotting (see below).
Western blotting. […] Cell extracts were stored at −80° C. until use.

HeLa cells = experiment: Quantification of centrosome numbers from fixed samples, HeLa; format: cell-based, human; conditions: HeLa, 50 or 100 nM
Method: Quantification of centrosome numbers from fixed samples. Cells were seeded onto poly-D-lysine-coated coverslips (Neuvitro) in 12-well plates at least 8 hours before fixation. At the required timepoints for each experiment, cells were washed once with PBS and fixed in 100% methanol (−20° C., 5 minutes). Fixed cells were washed with PBS, blocked with PBS+4% BSA+0.1% Triton X-100, and stained with primary antibodies against γ-tubulin and Cep192, which localize to the pericentriolar material and proximal to the outer centriole wall, respectively (47, 48). Alexa488-labeled anti-mouse secondary antibody (against anti-γ-tubulin) and Alexa647-labeled anti-rabbit secondary antibody (against anti-Cep192) were both used at 1.5 jag/mL. Samples were mounted onto slides with Prolong Gold antifade reagent (Life Technologies). Images of fixed interphase cells were acquired on a Nikon Eclipse E800 with a 60×1.4 NA PlanApo objective and ORCA-ER camera (Hamamatsu) using Metamorph software (Molecular Devices). Quantification of foci was performed manually. A focus was defined as a bona-fide centrosome if it was positive for both γ-tubulin and Cep192 (true for >95% of foci).

JAK2 = biological target: T1, JAK2 (Homo sapiens, UniProt O60674); experiment: Radiometric kinase assay, off-target JAK2; format: biochemical
T1 construct: Reaction Biology (Malvern, Pa.), contract assay
T1 sequence (O60674 whole entry): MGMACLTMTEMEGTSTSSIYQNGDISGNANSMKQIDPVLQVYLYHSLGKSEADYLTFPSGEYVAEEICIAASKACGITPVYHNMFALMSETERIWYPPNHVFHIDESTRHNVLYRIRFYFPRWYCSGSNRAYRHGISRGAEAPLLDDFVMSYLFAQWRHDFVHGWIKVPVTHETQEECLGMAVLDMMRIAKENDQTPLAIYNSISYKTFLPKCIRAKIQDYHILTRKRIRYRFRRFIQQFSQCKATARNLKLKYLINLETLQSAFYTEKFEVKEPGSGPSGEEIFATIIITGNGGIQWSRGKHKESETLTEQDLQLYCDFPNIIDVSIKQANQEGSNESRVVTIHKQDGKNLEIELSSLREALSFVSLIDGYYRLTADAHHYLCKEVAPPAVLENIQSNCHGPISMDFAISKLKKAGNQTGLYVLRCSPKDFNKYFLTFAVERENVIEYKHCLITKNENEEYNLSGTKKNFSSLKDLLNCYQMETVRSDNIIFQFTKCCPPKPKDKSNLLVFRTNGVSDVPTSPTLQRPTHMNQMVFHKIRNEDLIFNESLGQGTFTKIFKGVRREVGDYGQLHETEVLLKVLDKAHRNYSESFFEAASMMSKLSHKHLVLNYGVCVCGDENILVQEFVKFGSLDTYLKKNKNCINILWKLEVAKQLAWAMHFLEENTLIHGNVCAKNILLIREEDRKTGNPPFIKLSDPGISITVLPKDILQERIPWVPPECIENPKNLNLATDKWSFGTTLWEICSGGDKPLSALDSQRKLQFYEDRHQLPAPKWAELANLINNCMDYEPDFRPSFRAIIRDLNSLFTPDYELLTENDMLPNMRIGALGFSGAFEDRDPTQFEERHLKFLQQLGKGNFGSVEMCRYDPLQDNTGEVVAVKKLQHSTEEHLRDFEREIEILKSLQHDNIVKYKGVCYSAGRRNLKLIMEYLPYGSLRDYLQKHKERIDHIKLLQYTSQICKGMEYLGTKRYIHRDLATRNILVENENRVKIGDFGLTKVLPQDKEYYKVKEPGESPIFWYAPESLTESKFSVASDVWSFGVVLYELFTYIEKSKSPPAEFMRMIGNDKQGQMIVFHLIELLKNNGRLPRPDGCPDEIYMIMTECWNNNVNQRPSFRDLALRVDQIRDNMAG
Method: (§1) Aurora B and other radiometric kinase assays were performed by Reaction Biology (Malvern, Pa.). Kinome profiling of centrinone and centrinone-B was performed by DiscoveRx (San Diego, Calif.).

[2] = biological target: T2, inhibitor-resistant mutant Plk4 (G95L) (Homo sapiens, UniProt O00444, G95L); experiment: Plk4 (G95L) mutant kinase assay; format: biochemical
T2 construct: Plk4 assays used equal volumes of: (1) purified 6×His-tagged human Plk4 kinase domain (aa 2-275); 6xHis; made in house; host or cells: E. coli
Method: Kinase assays. […] Reactions were allowed to proceed for 4-16 hours at 25° C. Detection was performed using ADP-Glo reagent (Promega), following manufacturer's instructions. Luminescence was measured on an Infinite M1000 plate reader (Tecan). Data were fit using Prism (GraphPad) and Kis were calculated from IC50 data using the Cheng and Prusoff equation (37) or the Copeland formalism for tight-binding inhibitors (38).

FLT4/VEGFR3 = FLT4/VEGFR3 (Homo sapiens, UniProt P35916); experiment: Radiometric kinase assay, off-target FLT4/VEGFR3; format: biochemical
FLT4/VEGFR3, sequence (P35916 25-1363): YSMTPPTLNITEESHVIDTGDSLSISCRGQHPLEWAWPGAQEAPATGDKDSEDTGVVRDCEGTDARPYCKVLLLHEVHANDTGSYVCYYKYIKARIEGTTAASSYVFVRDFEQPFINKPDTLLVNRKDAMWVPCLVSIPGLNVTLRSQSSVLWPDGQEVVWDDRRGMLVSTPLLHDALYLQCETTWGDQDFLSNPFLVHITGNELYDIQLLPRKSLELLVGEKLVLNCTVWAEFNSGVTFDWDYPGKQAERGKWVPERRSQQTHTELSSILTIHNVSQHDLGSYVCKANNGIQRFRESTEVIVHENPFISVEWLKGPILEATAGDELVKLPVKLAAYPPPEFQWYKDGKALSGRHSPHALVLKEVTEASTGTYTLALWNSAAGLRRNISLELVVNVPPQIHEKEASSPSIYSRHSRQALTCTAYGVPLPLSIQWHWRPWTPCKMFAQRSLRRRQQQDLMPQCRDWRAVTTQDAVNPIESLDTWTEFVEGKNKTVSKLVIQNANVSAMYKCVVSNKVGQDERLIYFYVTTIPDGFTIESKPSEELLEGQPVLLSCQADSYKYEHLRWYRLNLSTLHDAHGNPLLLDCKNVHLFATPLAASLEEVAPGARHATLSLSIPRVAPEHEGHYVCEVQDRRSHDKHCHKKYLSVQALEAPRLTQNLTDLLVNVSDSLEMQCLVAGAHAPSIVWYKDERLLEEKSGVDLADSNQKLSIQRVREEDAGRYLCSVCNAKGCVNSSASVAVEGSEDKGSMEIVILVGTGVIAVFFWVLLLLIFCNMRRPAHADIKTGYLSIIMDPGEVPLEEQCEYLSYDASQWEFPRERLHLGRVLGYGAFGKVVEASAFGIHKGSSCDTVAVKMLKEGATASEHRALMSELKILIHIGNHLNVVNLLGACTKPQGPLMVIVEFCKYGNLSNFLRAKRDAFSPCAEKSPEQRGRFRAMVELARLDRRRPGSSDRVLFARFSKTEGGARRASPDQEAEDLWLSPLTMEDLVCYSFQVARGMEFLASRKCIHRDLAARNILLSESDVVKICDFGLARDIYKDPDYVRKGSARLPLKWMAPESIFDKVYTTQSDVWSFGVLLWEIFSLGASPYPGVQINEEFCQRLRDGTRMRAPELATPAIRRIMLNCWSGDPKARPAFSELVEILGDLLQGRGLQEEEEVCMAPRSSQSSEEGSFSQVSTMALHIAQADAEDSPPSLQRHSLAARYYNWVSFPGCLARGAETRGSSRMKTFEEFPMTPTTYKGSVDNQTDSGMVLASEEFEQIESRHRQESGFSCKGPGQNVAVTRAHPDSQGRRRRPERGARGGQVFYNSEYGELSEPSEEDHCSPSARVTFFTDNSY
Method: as §1

TNK1 = biological target: T3, TNK1 (Homo sapiens, UniProt Q13470); experiment: Radiometric kinase assay, off-target TNK1; format: biochemical
T3 construct: Reaction Biology (Malvern, Pa.), contract assay
T3 sequence (Q13470 1-666): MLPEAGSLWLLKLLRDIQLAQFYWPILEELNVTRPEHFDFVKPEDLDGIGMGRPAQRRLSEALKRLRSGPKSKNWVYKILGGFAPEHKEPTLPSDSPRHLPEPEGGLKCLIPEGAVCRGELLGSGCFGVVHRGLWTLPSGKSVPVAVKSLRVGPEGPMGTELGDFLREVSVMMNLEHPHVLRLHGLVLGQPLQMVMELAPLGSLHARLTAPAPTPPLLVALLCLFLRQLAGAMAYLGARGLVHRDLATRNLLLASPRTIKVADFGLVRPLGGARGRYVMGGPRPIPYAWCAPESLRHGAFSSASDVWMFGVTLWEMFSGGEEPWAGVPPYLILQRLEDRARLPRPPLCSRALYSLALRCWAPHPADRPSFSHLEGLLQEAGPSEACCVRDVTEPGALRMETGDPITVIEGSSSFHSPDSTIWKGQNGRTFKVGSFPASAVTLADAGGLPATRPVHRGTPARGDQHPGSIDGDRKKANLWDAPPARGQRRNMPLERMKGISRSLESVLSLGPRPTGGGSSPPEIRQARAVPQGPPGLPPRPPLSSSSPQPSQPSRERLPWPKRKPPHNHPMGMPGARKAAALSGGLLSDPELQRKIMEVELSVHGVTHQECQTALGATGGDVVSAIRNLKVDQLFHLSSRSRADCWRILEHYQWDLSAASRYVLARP
Method: as §1

ROS/ROS1 = ROS/ROS1 (Homo sapiens, UniProt P08922); experiment: Radiometric kinase assay, off-target ROS/ROS1; format: biochemical
ROS/ROS1, sequence (P08922 28-2347): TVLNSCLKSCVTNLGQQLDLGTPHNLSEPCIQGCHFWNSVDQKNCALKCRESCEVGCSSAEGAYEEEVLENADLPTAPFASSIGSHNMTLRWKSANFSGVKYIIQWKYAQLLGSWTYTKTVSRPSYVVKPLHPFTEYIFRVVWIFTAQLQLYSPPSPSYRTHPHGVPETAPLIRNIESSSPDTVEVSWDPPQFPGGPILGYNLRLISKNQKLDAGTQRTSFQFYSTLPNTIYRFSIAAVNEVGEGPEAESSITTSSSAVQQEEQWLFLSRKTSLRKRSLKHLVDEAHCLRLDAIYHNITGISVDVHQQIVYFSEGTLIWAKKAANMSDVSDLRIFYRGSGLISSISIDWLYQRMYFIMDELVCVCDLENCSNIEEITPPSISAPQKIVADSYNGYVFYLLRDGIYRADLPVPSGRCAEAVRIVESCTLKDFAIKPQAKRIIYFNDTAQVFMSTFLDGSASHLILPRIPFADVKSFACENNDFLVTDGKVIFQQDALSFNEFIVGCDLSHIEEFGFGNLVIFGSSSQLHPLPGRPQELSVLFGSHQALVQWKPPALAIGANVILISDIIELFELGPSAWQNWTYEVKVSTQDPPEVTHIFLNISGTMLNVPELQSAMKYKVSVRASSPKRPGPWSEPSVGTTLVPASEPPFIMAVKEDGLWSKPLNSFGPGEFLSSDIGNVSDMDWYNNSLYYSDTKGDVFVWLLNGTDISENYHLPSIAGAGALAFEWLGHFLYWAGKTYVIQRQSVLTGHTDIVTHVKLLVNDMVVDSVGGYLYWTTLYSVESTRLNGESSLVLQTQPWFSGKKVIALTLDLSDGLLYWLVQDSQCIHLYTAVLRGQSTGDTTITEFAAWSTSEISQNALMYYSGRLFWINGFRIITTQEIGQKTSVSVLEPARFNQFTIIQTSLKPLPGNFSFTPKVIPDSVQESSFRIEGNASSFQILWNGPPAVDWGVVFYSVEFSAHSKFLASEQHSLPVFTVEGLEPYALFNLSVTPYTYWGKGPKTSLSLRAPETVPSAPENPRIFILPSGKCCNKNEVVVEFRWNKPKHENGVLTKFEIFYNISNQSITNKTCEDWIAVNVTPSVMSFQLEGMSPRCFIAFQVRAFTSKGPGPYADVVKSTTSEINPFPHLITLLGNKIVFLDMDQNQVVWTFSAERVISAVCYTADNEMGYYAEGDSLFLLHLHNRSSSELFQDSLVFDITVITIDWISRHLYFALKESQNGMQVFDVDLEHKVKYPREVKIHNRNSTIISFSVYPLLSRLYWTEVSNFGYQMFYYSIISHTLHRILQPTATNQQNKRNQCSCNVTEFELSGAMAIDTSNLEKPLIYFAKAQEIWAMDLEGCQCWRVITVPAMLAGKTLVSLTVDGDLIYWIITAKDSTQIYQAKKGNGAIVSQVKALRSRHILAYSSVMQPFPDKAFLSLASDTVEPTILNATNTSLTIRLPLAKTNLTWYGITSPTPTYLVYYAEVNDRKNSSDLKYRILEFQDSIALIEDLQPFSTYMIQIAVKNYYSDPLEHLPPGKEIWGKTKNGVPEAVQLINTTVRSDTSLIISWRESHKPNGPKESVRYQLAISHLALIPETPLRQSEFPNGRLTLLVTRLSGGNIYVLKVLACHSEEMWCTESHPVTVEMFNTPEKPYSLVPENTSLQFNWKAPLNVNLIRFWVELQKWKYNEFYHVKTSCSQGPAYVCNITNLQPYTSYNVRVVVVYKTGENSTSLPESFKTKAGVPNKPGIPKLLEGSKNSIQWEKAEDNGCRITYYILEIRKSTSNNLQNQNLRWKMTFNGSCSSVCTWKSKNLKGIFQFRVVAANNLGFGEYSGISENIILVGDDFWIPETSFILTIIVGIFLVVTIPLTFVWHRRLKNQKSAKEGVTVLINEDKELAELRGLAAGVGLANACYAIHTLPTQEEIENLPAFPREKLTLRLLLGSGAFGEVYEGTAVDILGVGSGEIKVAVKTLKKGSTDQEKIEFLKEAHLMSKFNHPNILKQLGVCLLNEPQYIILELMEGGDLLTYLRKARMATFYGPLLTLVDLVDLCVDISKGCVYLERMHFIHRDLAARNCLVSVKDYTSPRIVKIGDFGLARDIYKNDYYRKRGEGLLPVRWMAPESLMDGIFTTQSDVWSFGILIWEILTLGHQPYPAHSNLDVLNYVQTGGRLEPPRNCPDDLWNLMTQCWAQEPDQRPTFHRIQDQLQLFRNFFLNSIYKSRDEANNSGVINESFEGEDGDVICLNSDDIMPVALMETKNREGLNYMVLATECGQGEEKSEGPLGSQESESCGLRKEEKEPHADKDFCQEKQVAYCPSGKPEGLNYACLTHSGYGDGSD
Method: as §1

RET = biological target: T4, RET (Homo sapiens, UniProt P07949); experiment: Radiometric kinase assay, off-target RET; format: biochemical
T4 construct: Reaction Biology (Malvern, Pa.), contract assay
Method: as §1

centrosomes in cells = experiment: Cellular centrosome depletion (cell line not stated); format: cell-based; conditions: cellular activity, FIG. 1A
Method: Centriole depletion assay for compound screening. 1,500 NIH/3T3 cells or 3,500 HCT116 cells were seeded into 96-well SCREENSTAR microplates (Greiner) and treated with inhibitors in dose response, added from DMSO stocks. After 3 days, cells were fixed directly in the wells with 100% methanol (−20° C., 10 minutes). The fixed cells were washed with PBS and stained with primary antibodies against γ-tubulin and, for a subset of compounds, Cep192. Cells were then stained with Alexa-488 donkey anti-mouse and Alexa-647 goat anti-rabbit secondary antibodies. Cells were imaged using either a Model 500 LumaScope (Etaluma) or an EVOS FL (Advanced Microscopy Group/Life Technologies), and centriole depletion was determined by scoring the percentage of cells without visible γ-tubulin/Cep192 foci.

Aurora B = biological target: T5, Aurora B (Homo sapiens, UniProt Q96GD4); experiment: Aurora B radiometric kinase assay (Reaction Biology); format: biochemical
T5 construct: Reaction Biology (Malvern, Pa.), contract assay
T5 sequence (Q96GD4 whole entry): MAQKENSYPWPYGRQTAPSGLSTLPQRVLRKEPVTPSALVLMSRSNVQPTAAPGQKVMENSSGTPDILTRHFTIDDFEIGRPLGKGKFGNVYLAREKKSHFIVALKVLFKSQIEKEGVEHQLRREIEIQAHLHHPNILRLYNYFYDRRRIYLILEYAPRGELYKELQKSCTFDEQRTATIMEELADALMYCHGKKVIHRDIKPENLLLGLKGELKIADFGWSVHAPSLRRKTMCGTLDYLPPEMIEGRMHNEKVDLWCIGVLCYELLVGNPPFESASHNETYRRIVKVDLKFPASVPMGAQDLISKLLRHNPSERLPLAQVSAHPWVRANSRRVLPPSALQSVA
Method: Aurora B and other radiometric kinase assays were performed by Reaction Biology (Malvern, Pa.).

human Aurora A = biological target: T6, human Aurora A (Homo sapiens, UniProt O14965); experiment: Aurora A kinase assay (ADP-Glo); format: biochemical
T6 construct: purchased Millipore
T6 sequence (O14965 1-403): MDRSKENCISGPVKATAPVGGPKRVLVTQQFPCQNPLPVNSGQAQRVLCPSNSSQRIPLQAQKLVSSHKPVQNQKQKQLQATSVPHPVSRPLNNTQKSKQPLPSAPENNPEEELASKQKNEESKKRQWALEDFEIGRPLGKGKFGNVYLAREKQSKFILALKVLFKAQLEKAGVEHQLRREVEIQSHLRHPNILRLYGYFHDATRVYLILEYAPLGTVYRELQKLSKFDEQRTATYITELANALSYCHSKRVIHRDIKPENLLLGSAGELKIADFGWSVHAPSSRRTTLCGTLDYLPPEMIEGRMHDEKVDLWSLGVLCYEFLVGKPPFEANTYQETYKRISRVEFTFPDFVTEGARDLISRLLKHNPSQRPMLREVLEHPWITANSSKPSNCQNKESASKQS
Method: LRRASLG)+inhibitors arrayed in dose response (added as described above). […] Detection, measurement and data analysis were performed as described above.

SRPK1 = biological target: T7, SRPK1 (Homo sapiens, UniProt Q96SB4); experiment: Radiometric kinase assay, off-target SRPK1; format: biochemical
T7 construct: Reaction Biology (Malvern, Pa.), contract assay
Method: as §1

LRRK2 = biological target: T8, LRRK2 (Homo sapiens, UniProt Q5S007); experiment: Radiometric kinase assay, off-target LRRK2; format: biochemical
T8 construct: Reaction Biology (Malvern, Pa.), contract assay
Method: as §1

[3] = biological target: T9, human Plk4 kinase domain (aa 2-275) (Homo sapiens, UniProt O00444); experiment: Plk4 kinase assay (ADP-Glo); format: biochemical
T9 construct: purified 6×His-tagged human Plk4 kinase domain (aa 2-275); 6xHis; made in house; host or cells: E. coli
T9 sequence (O00444 2-275): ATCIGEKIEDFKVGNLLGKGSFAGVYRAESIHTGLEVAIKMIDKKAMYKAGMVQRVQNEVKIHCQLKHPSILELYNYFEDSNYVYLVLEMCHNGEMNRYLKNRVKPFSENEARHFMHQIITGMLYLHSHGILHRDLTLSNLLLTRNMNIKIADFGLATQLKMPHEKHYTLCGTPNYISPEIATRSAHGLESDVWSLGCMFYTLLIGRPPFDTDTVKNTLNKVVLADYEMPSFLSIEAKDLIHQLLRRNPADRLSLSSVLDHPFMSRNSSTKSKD
How it was run: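 Enzyme at 2.5-10 nM final, pH 8.0, reacted 4-16 hours at 25° C; ADP generation read by ADP-Glo luminescence. Ki derived from IC50 by Cheng-Prusoff or, for tight binders, Copeland formalism.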

[4] = off-target from DiscoveRx kinome profiling

SMILES: COc1ccc2c(c1)[C@]1(C[C@H]1c1ccc3c(/C=C/c4ccc(CN5C[C@@H](C)O[C@@H](C)C5)cc4)n[nH]c3c1)C(=O)N2 (relative stereo) [CFI-400945, (1R,2S).2-(3-((E).4-(((cis).2,6-dimethylmorpholino)methyl)styryl). 1H.indazol-6-yl)-5′-methoxyspiro[cyclopropane-1,3′-indolin]-2′-one, reference compound]
- Plk4-YFP stabilization [1]: only slight Plk4-YFP stabilization
- nuclear morphology and division (HeLa cells): become grossly multinuclear
- effect on centrosome number (HeLa cells; 3 days): causes centrosome amplification; also recorded: does not deplete centrioles from cells; also recorded: induces centrosome amplification

SMILES: COc1c(Nc2cc(C)[nH]n2)nc(Sc2ccc(S(=O)(=O)Cc3cccc([N+](=O)[O-])c3F)cc2F)nc1N1CCCCC1 [Centrinone-B, 2-((2-fluoro-4-((2-fluoro-3-nitrobenzyl)sulfonyl)phenyl)thio)-5-methoxy-N-(5-methyl-1H-pyrazol-3-yl)-6-(piperidin-1-yl)pyrimidin-4-amine]
- Plk4 selectivity, Ki(JAK2)/Ki(Plk4) (JAK2): >847
- Ki (JAK2; [4]): > 500 nM
- Ki [2]: 498 nM
- Plk4 selectivity, Ki(Plk4 G95L)/Ki(Plk4) [2]: 847
- Plk4 selectivity, Ki(FLT4/VEGFR3)/Ki(Plk4) (FLT4/VEGFR3): 99
- Ki (FLT4/VEGFR3; [4]): 58 nM
- Plk4 selectivity, Ki(TNK1)/Ki(Plk4) (TNK1): 10
- Ki (TNK1; [4]): 6.04 nM
- Plk4 selectivity, Ki(ROS/ROS1)/Ki(Plk4) (ROS/ROS1): 153
- Ki (ROS/ROS1; [4]): 90.1 nM
- Plk4 selectivity, Ki(RET)/Ki(Plk4) (RET): 332
- Ki (RET; [4]): 195 nM
- centrosome depletion at (centrosomes in cells): 500 nM
- Ki (Aurora B): 5600 nM
- Plk4 selectivity, Ki(Aurora B)/Ki(Plk4) (Aurora B): 9523
- Ki (human Aurora A): 1240 nM
- Plk4 selectivity, Ki(Aurora A)/Ki(Plk4) (human Aurora A): 2108
- Plk4 selectivity, Ki(SRPK1)/Ki(Plk4) (SRPK1): >847
- Ki (SRPK1; [4]): > 500 nM
- Plk4 selectivity, Ki(LRRK2)/Ki(Plk4) (LRRK2): 13
- Ki (LRRK2; [4]): 7.66 nM
- Ki [3]: 0.6 nM and 0.59 nM
